Source: a melting point compilation (Tetko et al.; mined from patent text by program, amines drawn as free bases though some values may be those of a salt)
Starred links: 1 amine or outer side, 2 acyl side, 3 side chain; linkers in the order of their positions; H or OH if unused. Residues, ends and D or L forms follow the SMILES beside them. *: point of attachment. Glutaryl = O=C(CCCC(=O)[*:2])[*:1]; NHPr = CCCN*

Row | melting point [°C] | SMILES
1 | 137 to 138 | CON(C)C(=O)c1nc(C(C)(C)C)c(O)c(C(C)(C)C)n1
2 | 80 to 81 | CCCCSCC(=O)c1ccc2c(c1)n(C)c(=O)n2C
3 | 129 to 130 | COc1cccc(CC(=O)O)c1OCCCc1cc(OC(C)C)nn1Cc1ccc2ccccc2n1
4 | 123 to 125 | Cc1ccccc1C=C1CSCC(=Cc2ccccc2C)C1=O
5 | 178 to 182 | COc1cc2c(cc1OC)C(C)=[N+]([O-])C(c1ccccc1)N2 (stereo unspecified)
6 | 120 to 122 | COC(=O)C(=O)c1cn2c3c(cccc13)C(Br)CC2 (stereo unspecified)
7 | 79 | CCCCc1c2ccccc2c(C=O)c2ccccc12
8 | 161 to 162 | CCCCC[C@@H](CNC(=O)Nc1cccc2c1OC(C)(C)C2)c1cccc2c1OCO2
9 | 149 to 150 | O=C(Nc1ccc(-n2nc(C(F)(F)F)cc2OC(F)F)cc1)c1cccnc1F
10 | 200 to 203 | CNC(=O)C=Cc1cn(C)nc1[N+](=O)[O-]
11 | 106 to 108 | COc1cc(Nc2c(C#N)cnc3sc(-c4ccc(CN5CCOCC5)cc4)cc23)c(Cl)cc1Cl
12 | 208 to 210 | C[Si](C)(C)c1ccc2cc(C(=O)Nc3ccc(N4CCC4)nc3)n(Cc3cccc(F)c3)c2c1
13 | 74 to 75 | c1ccc(COc2cccc(CCCn3ccnn3)c2)cc1
14 | 239 to 240 | CN1CCN(c2ccc(N/C=C3\C(=O)NC(=O)c4ccc(-n5cccc5)cc43)cc2)CC1
15 | 56 to 59 | N#Cc1cc2c(cn1)CCCC2
16 | 176 | Cc1cc(O)c(SC23CC4CC(CC(C4)C2)C3)c(=O)o1
17 | 108 to 110 | CCN(CC)CCNC(=O)c1cc(I)cc2cc3ccccc3nc12
18 | 120 to 123 | O=C(N[C@H]1CSc2ccc(C(F)(F)F)cc2NC1=O)OCc1ccccc1
19 | 69 to 70 | CN(C)C1CCCCCCCCCCC1N(C)C(=O)c1ccc(C(F)(F)F)cc1 (stereo unspecified)
20 | 164 to 165 | N#CN=C(Nc1ccc(C#N)c(Br)c1O)Nc1cccc2c1OCO2
21 | 120 | CN(C)CCC1(CO)c2ccccc2N(C)c2cc(Cl)ccc21 (stereo unspecified)
22 | 106 to 109 | CC(C)c1nn(-c2ccccn2)c(-c2ccc(F)cc2)c1/C=C/CO
23 | 94 | Cc1ccc(-c2cccc(CCl)n2)cc1
24 | 166 | Cc1nc2n(C)c(C)cn2c(=O)c1CCN1CCC(n2ccc3ccccc32)CC1
25 | 203 | Cc1nc(C)c(Cl)c(NCc2ccc(Oc3ccc4ncc([N+](=O)[O-])n4n3)cc2)n1

Row | melting point [°C] | SMILES
26 | 206 to 208 | CC(C)(c1ccccc1)N1CC(O)=C(c2ccccc2)C1=O
27 | 172 to 174 | NCCN1C(=O)c2ccccc2C1(O)c1ccccc1Cl (stereo unspecified)
28 | 66 to 68 | O=C(OCc1ccccc1)OCC1OC(n2cc(F)c(=O)[nH]c2=O)C(O)C1O (stereo unspecified)
29 | 160 to 162 | O=C(O)c1cc(OCCCOc2ccc(O)cc2)cc(OCCCOc2ccc(O)cc2)c1
30 | 228 to 230 | CC(=O)NCc1ncc(-n2nc(C)cc2C)nc1Nc1ccc(Cl)cc1
31 | 67 to 69 | COc1cc(NC(=O)c2cccc(CCc3cc(Nc4ccccc4)n[nH]3)c2)cc(OC)c1OC
32 | 126 to 128 | COc1ccc(C2=NN(C3CCNCC3)C(=O)C(C)(C)C2)cc1OC
33 | 123 to 125 | COC(C)(C)C(=O)Nc1ccc(Sc2nc(C)cc(C)n2)cc1
34 | 122 to 125 | CCC(=O)Nc1csc(Br)n1
35 | 162 to 164 | O=C1N(CC2CCCO2)c2ccccc2C12COc1cc3c(cc12)OCC3 (stereo unspecified)
36 | 190 | CC1=C(C(=O)OC(C)(C)C)C(c2cccc(Cl)c2)C(C(=O)OC(C)(C)C)=C(C)N1
37 | 166 to 168 | CC(CCCC(O)(C(F)(F)F)C(F)(F)F)C1CCC2C3C=CC4=CC(=O)C=CC4(C)C3CCC12C (stereo unspecified)
38 | 116 to 117 | O=C1O[C@@H](CO)CN1c1ccc(I)c(F)c1
39 | 110 to 112 | COc1ccc2c(cc(C)n2-c2ncnc3cc(Cl)ccc23)c1CC(=O)O
40 | 92 to 93 | CCC=C(C)C(O)C(CC)CC (stereo unspecified)
41 | 204 to 205 | C#CCN(Cc1cc2c(=O)n(C)c(COS(C)(=O)=O)nc2cc1Cl)c1ccc(C(=O)OC(C)(C)C)cc1
42 | 263 to 265 | O=C(O)c1cnc2ccc(C3CCCCC3)cc2c1O
43 | 149 | O=C(c1ccc(F)cc1)c1ccc(-c2ccccc2)cc1
44 | > 300 | O=C(O)c1ccc(-c2nc(-c3ccc(Br)cc3)cs2)cc1
45 | 51 to 52 | OCCCc1cnoc1-c1ccc(Cl)c(F)c1
46 | 59 to 60 | COc1ccc(Cl)cc1C(=O)Cl
47 | 222 to 225 | O=[N+]([O-])c1cc2nccnc2cc1Sc1cccc2cnccc12
48 | 46.5 to 48 | O=CCc1c(O)c(Br)cc(F)c1F
49 | 237 to 239 | O=C1NCCN1c1ccc(S(=O)(=O)Nc2ccc(Br)cc2)cc1
50 | 228 to 230 | N#Cc1cccc(-c2cnc3[nH]c(=O)n(CC4CCCCC4)c3n2)c1

Row | melting point [°C] | SMILES
51 | 213 to 214 | CCc1sc2ncnc(N)c2c1-c1ccc(NC(=O)c2ccccc2)cc1
52 | 264 | CCOc1cc(-c2cc(C(F)(F)F)n3ncc(C(=O)O)c3n2)ccc1C(F)(F)F
53 | 185 to 188 | CCN(CC)C(C)CN1c2cc(Cl)ccc2S[C@H]2[C@@H](O)[C@H](O)[C@@H](CO)O[C@H]21 (stereo partly specified)
54 | 78.2 to 80 | CCCc1ccc([C@H]2CC[C@H](O)CC2)cc1
55 | 122 to 123 | COc1cccc(CC(=O)O)c1OCCCc1cn(-c2ccc(NC(=O)C(C)C)cn2)nc1C(C)C
56 | 82 to 84 | CC(=O)n1cc(Cl)c(-c2ccccc2Cl)c1
57 | 149 to 150 | CC(=O)NC1=NN(c2ccccc2)CC1C (stereo unspecified)
58 | 131 to 134 | CCCNC(=O)C1CCCN1C(=O)C(C)NC(=O)C(C)NC(=O)CCCC(=O)O (stereo not drawn) (Glutaryl-Ala-Ala-Pro-NHPr; configuration not given here)
59 | 199 to 200 | CCn1c(C(c2ccccc2)c2ccccc2)nc(-c2ccncc2)c1-c1ccc(Cl)cc1
60 | 107 to 108 | CCCCCCc1oc(C=Cc2ccccc2)nc1CC(=O)O
61 | 176 to 183 | O=C(O)C(c1ccccc1)N1CC(N2C(=O)c3ccccc3C2=O)C1=O (stereo unspecified)
62 | 93 to 95 | CCCCn1cc(C(=O)OCC)c(NC(=S)Nc2ccccc2)n1
63 | 142 to 143 | COc1ccc(-c2sc3cc(OC)ccc3c2C#N)cc1
64 | 226 to 228 | O=C1c2ccc([N+](=O)[O-])cc2C(=O)c2c(O)ccc(O)c21
65 | 143 to 145 | COc1ccc(-c2ccc(-c3ccc(F)cc3)nc2-c2ccc(O)cc2)cc1
66 | 222 | CCOc1cc2cc(CO)c(CO)c(-c3ccnc(-n4nc(-c5cccnc5)c5ccccc5c4=O)c3)c2cc1OCC
67 | 89 to 90 | CCOP(=O)(/C=C/c1cn(-c2ccccc2)nc1OCc1ccccc1)OCC
68 | 117 | O=C(NC(Cc1c[nH]c2ccccc12)C(=O)OCc1ccccc1C(F)(F)F)c1ccccc1 (stereo unspecified)
69 | 55 to 63 | CN1CCN(c2cc(Cl)cc3c2c(=O)n(CCCc2ccccc2)c(=O)n3Cc2ccccc2)CC1
70 | 208 to 209 | Cn1c(-c2ccc([N+](=O)[O-])cc2)nc2ccccc21
71 | 71 to 72 | O=C(O)CCCCOc1ccccc1Cl
72 | 184 to 187 | CCOC(=O)c1cn2c(cnc3ccccc32)n1
73 | 210 to 213 | O=C(O)Cc1ccc(Br)cc1C(=O)O
74 | 218 to 220 | N#CCC(=O)Nc1cc(N)ccc1[N+](=O)[O-]
75 | 158 to 160 | COc1ccc(-c2cc(CO)c(=O)n(CC=Cc3ccc(Cl)cc3)n2)cc1F

Row | melting point [°C] | SMILES
76 | 117 to 120 | CC(C)(C)c1nc2cc(N3CCSCC3)c([N+](=O)[O-])cc2s1
77 | 80 to 81 | Cc1ccc(Sc2ccnc(Cl)n2)cc1
78 | 58 to 60 | CCCc1c(OCC(C)CC(=O)NCCCCc2cccnc2)ccc(C(C)=O)c1O (stereo unspecified)
79 | 190 to 193 | Cc1ccc(C(=O)Cn2c(-n3ncnc3N)nc3ccccc32)cc1C
80 | 236 to 238 | Cc1nc2cc(NC(=O)c3cc4cccnc4n3-c3ccncc3)ccc2s1
81 | 188 to 190 | Cc1c(C(=O)O)oc2cc(SC(=O)N(C)C)ccc12
82 | 60 to 65 | COC(=O)[C@H](Cc1ccc(OCCN2CCCCCC2)cc1)NC(=O)[C@@H]1CCCN1S(=O)(=O)c1ccc(C)cc1
83 | 123 to 124 | COc1cc(N)c(Cl)cc1C(=O)NCC1CCCN1C1CCCCC1 (stereo unspecified)
84 | 173 to 175 | CCCCCCCCCCCCS(=O)(=O)c1cc2c(cc1S(=O)(=O)CCCCCCCCCCCC)C(=O)c1c(c(O)c3ccccc3c1O)C2=O
85 | 245 to 246 | O=C(O)c1cn(-c2cccs2)c2cc(F)c(F)cc2c1=O
86 | 90.5 to 93 | CN(C)C(=O)N1CCSC1c1ccccc1OCCN1CCN(c2cccc(F)c2)CC1 (stereo unspecified)
87 | > 300 | Nc1c(F)c(F)cc2c1c(=O)c(C(=O)O)cn2C1CC1
88 | 184 to 185 | COc1cc2c(cc1OC)C(Oc1ccccc1)CN(NC(=O)c1cc(Cl)cc(Cl)c1)CC2 (stereo unspecified)
89 | 98.2 | N#CC=Cc1ccc(Cl)c(Cl)c1
90 | 103 to 104 | CCC(O)(c1ccc(F)cc1)c1ccc(OCc2cccc(C)n2)cc1 (stereo unspecified)
91 | 88 to 90 | COC(=O)NC(C)(C)c1ccc(CC#N)cc1
92 | 247 to 248 | NC(=O)COc1ccc(C(=O)CN2CCN(c3ccncc3)CC2)cc1
93 | 104 | OCc1ccc(-c2nn(Cc3ccccc3)c3ncccc23)o1
94 | 130 to 131 | CC(C)(C)OC(=O)NCCNC(=O)c1cc([N+](=O)[O-])ccn1
95 | 121 to 123 | O=C1Cc2ccccc2C=Cc2cc(Br)ccc21
96 | 79.5 to 81 | O=C(O)Cc1cc(Br)ccc1OCCCc1ccccc1
97 | 42 to 45 | O=C(Cc1ccccc1)c1ccc(SC(F)F)cc1

Row | SMILES | melting point [°C]
98 | O=C(NCCn1ccnc1)c1cc(N2CC2)c([N+](=O)[O-])cc1[N+](=O)[O-] | > 250
99 | c1ccc2c(c1)CNc1ccccc1S2 | 145 to 148
100 | CCCN1CC(NC(=O)C(C)(C)C)CC2c3cccc4[nH]c(Cl)c(c34)CC21 (stereo unspecified) | 146 to 147
101 | O=[N+]([O-])c1cccnc1N1CCNCC1 | 79 to 82
